Test [1] deals with MC38 colon cancer cells. The experiment in a line: MC38 subcutaneous tumor model, curcumin-administrated groups, Embodiment 4. The format is in vivo, C57BL/6 mice. Particulars: CBD 100 mg/kg, curcumin 50 mg/kg, piperine 1 mg/kg, vitamin E 50 mg/kg, thymosin 2 mg/kg; vs control. The procedure:
MC38 colon cancer cells were inoculated into 6-week-old female C57BL/6 mice (1×10^6 cells/mouse) to establish a subcutaneous tumor model. After the tumor volume reached 50 mm^3, the mice in the artemisinin-administered groups were grouped and administered with the following pharmaceutical combinations: (1) control group, (2) CBD (100 mg/kg)+vitamin E(α-tocopherol) (50 mg/kg)+thymosin (2 mg/kg) group, and (3) CBD (100 mg/kg)+artemisinin (20 mg/kg)+vitamin E(α-tocopherol) (50 mg/kg)+thymosin (2 mg/kg). The mice in curcumin-administrated group were grouped and administered with the following pharmaceutical combinations: (1) control group, (2) CBD (100 mg/kg) group, (3) curcumin (50 mg/kg)+piperine (1 mg/kg) group, (4) CBD (100 mg/kg)+curcumin (50 mg/kg)+piperine group (1 mg/kg), and (5) CBD (100 mg/kg)+curcumin (50 mg/kg)+piperine (1 mg/kg)+vitamin E(α-tocopherol) (50 mg/kg)+thymosin (2 mg/kg).
The tumor growth volume of the mice was monitored once every 2 days. The tumor volume was calculated as follows: tumor volume (mm^3)=0.5×(length)x(width)^2. The mice were sacrificed 14 days after drug administration, and the tumors were dissected. […]

Test [2] relates to MC38 colon cancer cells. The experiment in a line: MC38 subcutaneous tumor model in C57BL/6 mice, Embodiment 5. The format is in vivo. Particulars: for Tumor volume: CBD 100 mg/kg, PAR 5 mg/kg, vitamin E 50 mg/kg. The procedure: MC38 colon cancer cells were inoculated into 6-week-old female C57BL/6 mice (1×10^6 cells/mouse) to establish a subcutaneous tumor model. After the tumor volume reached 50 mm^3, the mice were grouped and administered with the following pharmaceutical combinations: (1) control group (no drug administration), (2) anti-PD-1 ([…] per time) group, (3) vitamin E(α-tocopherol) (50 mg/kg) group, (4) CBD (100 mg/kg) group, (5) CBD (100 mg/kg)+vitamin E(α-tocopherol) (50 mg/kg) group, (6) PAR (5 mg/kg) group, (7) PAR (5 mg/kg)+vitamin E(α-tocopherol) (50 mg/kg) group, (8) CBD (100 mg/kg)+PAR (5 mg/kg) group, and (9) PAR (5 mg/kg)+CBD (100 mg/kg)+vitamin E(α-tocopherol) (50 mg/kg) group.
The tumor weight, tumor volume, and mouse body weight were monitored once every 2 days. The tumor volume was calculated as follows: tumor volume (mm^3)=0.5×(length)×(width)^2. The mice were sacrificed 14 days after drug administration, and the tumors were dissected.
The dissolving mode of the pharmaceutical composition was as follows: the pharmaceutical composition was dissolved in 10% DMSO+corn oil, the mice were gavaged with the pharmaceutical composition at 100 μl/mice, and the mice in the control group were injected with the same volume of the solvent.

Take `C=C(C)[C@@H]1CCC(C)=C[C@H]1c1c(O)cc(CCCCC)cc1O` [CBD, cannabidiol]: the “tumor growth / anti-tumor effect in words” value in test [1] is recorded as “inhibited to a certain degree”. Moreover, the Tumor volume was 0 mm^3 in test [2] (Day 0); 63.99 mm^3 in test [2] (Day 4); 113.24 mm^3 in test [2] (Day 6); 120.48 mm^3 in test [2] (Day 8); 176.51 mm^3 in test [2] (Day 10); 241.75 mm^3 in test [2] (Day 12). In addition, the Tumor volume in test [2] (Day 14) is 314.83 mm^3; in test [2] (Day 16), 359.72 mm^3. In addition, in test [2] (normal mice, Embodiment 5, comparison between groups), the “therapeutic / tumor inhibition effect in words” value is reported as “equivalent therapeutic effects”.

Source of the values: US12599596B2, “Anti-tumor pharmaceutical composition based on immune checkpoint blockade and use thereof” (Shanghai Hui Tian Jin Ze Biotech Co., Ltd., priority 2023, dated 2026).
